Reference: article PMC10895799, “Differential contribution of THIK-1 K^+ channels and P2X7 receptors to ATP-mediated neuroinflammation by human microglia” (Journal of Neuroinflammation, 2024)

Legend:
Type in all cases: cell-based
[1] = biological target: T1, THIK-1 (hKCNK13) (Homo sapiens, UniProt Q9HB14); experiment: radioligand displacement on HEK-hKCNK13 membranes; IC50 from FLIPR thallium flux in HEK293; QPatch IC50 […]
T1 construct: gene KCNK13
T1 sequence (Q9HB14 1-408): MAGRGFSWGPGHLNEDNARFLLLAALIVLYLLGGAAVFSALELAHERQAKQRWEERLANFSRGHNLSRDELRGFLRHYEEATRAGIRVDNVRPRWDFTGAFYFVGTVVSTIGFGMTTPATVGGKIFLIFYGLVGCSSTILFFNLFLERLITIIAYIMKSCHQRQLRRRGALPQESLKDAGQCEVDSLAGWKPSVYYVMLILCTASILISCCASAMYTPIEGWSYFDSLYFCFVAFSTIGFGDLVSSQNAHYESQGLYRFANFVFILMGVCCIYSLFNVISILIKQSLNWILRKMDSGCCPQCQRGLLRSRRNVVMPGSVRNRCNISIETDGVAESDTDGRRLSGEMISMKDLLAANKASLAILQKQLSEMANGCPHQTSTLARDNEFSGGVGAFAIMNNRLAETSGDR

[2] = biological target: T2, THIK-1 (mKCNK13) (Mus musculus, UniProt Q8R1P5); experiment: FLIPR thallium flux in HEK293 cells; patch clamp of WT and THIK-1 KO microglia
T2 construct: gene Kcnk13
T2 sequence (Q8R1P5 1-405): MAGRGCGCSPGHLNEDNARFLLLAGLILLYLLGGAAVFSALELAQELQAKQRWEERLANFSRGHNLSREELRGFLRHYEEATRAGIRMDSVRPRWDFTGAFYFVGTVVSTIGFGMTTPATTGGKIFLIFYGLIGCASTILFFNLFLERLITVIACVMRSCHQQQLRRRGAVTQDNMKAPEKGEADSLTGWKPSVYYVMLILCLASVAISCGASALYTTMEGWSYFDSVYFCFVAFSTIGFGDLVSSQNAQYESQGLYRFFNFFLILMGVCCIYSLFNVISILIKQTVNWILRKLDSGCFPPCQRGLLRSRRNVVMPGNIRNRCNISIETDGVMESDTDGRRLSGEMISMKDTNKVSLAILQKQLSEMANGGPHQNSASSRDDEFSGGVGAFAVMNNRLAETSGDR

[3] = biological target: T1, THIK-1 (hKCNK13); experiment: reference blocker in FLIPR thallium flux and QPatch assays of hTHIK-1 HEK cells

| SMILES | IC50 [1] [nM] | IC50 [2] [nM] | reference blocker in FLIPR thallium flux and QPatch assays of hTHIK-1 HEK cells [3] |
| --- | --- | --- | --- |
| COc1ncc(Cl)cc1C(=O)N(C)Cc1cccc(F)c1 [C100814] | 71 | 61 | – |
| CCCCC[N+](CCCCC)(CCCCC)CCCCC [tetrapentylammonium] | – | – | normalised to controls using the nonselective THIK-1 antagonist tetrapentylammonium (TPA) |
